Earlier results, collected in patent publication US12458027B2, “Glyphosate composition for dicamba tank mixtures with improved volatility” (Monsanto Technology LLC, priority 2013, dated 2025).

Details: 25° C.

O=C(O)CNCP(=O)(O)O [Glyphosate acid, N-(phosphonomethyl)glycine]
solubility in water: about 1.16 wt. %
